Literature values as cited in patent US9910020B1, “Methods and articles for identifying objects using encapsulated perfluorocarbon tracers” (Copilot Ventures Fund III LLC, priority 2005, dated 2018).

Tests used:
cytochrome P-450 = settings: PFD given to rats; hepatic metabolizing enzymes
[1] = system: cytochrome P-450 IIA1 (a.k.a. cytochrome P450b); settings: following PFD treatment, rats; as with phenobarbital induction
[2] = system: cytochrome P-450 IIA2 (a.k.a. cytochrome P450e); settings: following PFD treatment, rats; as with phenobarbital induction
[3] = system: benzphetamine-N-demethylase; settings: following PFD treatment, rats
aldrin-epoxidase = settings: following PFD treatment, rats
[4] = system: cytochrome P-450 IA1 and IA1; settings: following PFD treatment, rats; induced by 3-methylcholanthrene-type inducers
cytochrome P450 IV = settings: following PFD treatment, rats; induced by fatty acids and perfluoronated fatty acids

SMILES: FC1(F)C(F)(F)C(F)(F)C2(F)C(F)(F)C(F)(F)C(F)(F)C(F)(F)C2(F)C1(F)F (stereo not shown) [PFD, perfluorodecalin]
- induction of cytochrome P-450 (cytochrome P-450): induce cytochrome P-450 in a manner similar to phenobarbital
- activity of cytochrome P-450 IIA1, increase [1]: approximately two-fold
- activity of cytochrome P-450 IIA2, increase [2]: approximately two-fold
- activity of benzphetamine-N-demethylase [3]: increased
- activity of aldrin-epoxidase (aldrin-epoxidase): increased
- activities of cytochrome P-450 IA1 and IA1 [4]: unaffected
- activity of cytochrome P450 IV (cytochrome P450 IV): unaffected
